Where two headings read alike, the source gives them in different places.
Test system: Enterobacterales
Assay: MIC, broth microdilution, CDC/FDA Antibiotic Resistance Isolate Bank (Example 7, Tables 8, 11, 12)
Assay type: cell-based
Conditions: for MIC50: read-out: MIC50; for MIC90: read-out: MIC90; for MIC: read-out: MIC
[1] = 154 strains of Enterobacterales
[2] = carbapenemase-producing Enterobacterales, Metallo-β-lactamase (N = 47)

CO/N=C(\C(=O)N[C@@H]1C(=O)N2C(C(=O)[O-])=C(C[n+]3ccn4ncccc43)CS[C@H]12)c1nsc(N)n1 [Cefozopran, cefozopran]
0.5 µg/mL: MIC (Escherichia coli, KUB No. 5578, AR Bank # 81) | MIC (Escherichia coli, KUB No. 5586, AR Bank # 89) | MIC (Escherichia coli, KUB No. 5769, AR Bank # 373) | MIC (Klebsiella aerogenes, Enterobacter aerogenes, KUB No. 5559, AR Bank # 62) | MIC (Klebsiella aerogenes, Enterobacter aerogenes, KUB No. 5571, AR Bank # 74) | MIC (Klebsiella oxytoca, KUB No. 5771, AR Bank # 375) | MIC (Proteus mirabilis, KUB No. 5653, AR Bank # 156)
1 µg/mL: MIC (Enterobacter cloacae, Enterobacter cloacae complex, KUB No. 5661, AR Bank # 164) | MIC (Escherichia coli, KUB No. 5770, AR Bank # 374) | MIC (Escherichia, KUB No. 57, AR Bank # 436 (row cut off)) | MIC (Klebsiella oxytoca, KUB No. 5644, AR Bank # 147)
≤ 0.03 µg/mL: MIC (Escherichia coli, KUB No. 5774, AR Bank # 378)
0.25 µg/mL: MIC (Enterobacter cloacae, Enterobacter cloacae group, KUB No. 5629, AR Bank # 132) | MIC (Enterobacter cloacae, KUB No. 5570, AR Bank # 73) | MIC (Escherichia coli, KUB No. 5564, AR Bank # 67) | MIC (Escherichia coli, KUB No. 5581, AR Bank # 84) | MIC (Serratia marcescens, KUB No. 5596, AR Bank # 99) | MIC (Serratia marcescens, Serratia marcescens KUB No. 5825, AR Bank #520)
64 µg/mL: MIC50 [1] | MIC (Escherichia coli, Escherichia coli KUB No. 5795, AR Bank #451) | MIC (Escherichia coli, KUB No. 5766, AR Bank # 370) | MIC (Escherichia coli, KUB No. 5780, AR Bank # 434) | MIC (Klebsiella pneumoniae, KUB No. 5573, AR Bank # 76) | MIC (Klebsiella pneumoniae, KUB No. 5623, AR Bank # 126) | MIC (Klebsiella pneumoniae, KUB No. 5636, AR Bank # 139) | MIC (Klebsiella pneumoniae, KUB No. 5642, AR Bank # 145) | MIC (Klebsiella pneumoniae, KUB No. 5645, AR Bank # 148) | MIC (Morganella morganii, KUB No. 5630, AR Bank # 133) | MIC (Proteus mirabilis, KUB No. 5652, AR Bank # 155)
16 µg/mL: MIC (Enterobacter cloacae, KUB No. 5562, AR Bank # 65) | MIC (Enterobacter cloacae, KUB No. 5569, AR Bank # 72) | MIC (Enterobacter cloacae, KUB No. 5761, AR Bank # 365) | MIC (Enterobacter cloacae, KUB No. 5762, AR Bank # 366) | MIC (Escherichia coli, KUB No. 5558, AR Bank # 61) | MIC (Escherichia coli, KUB No. 5611, AR Bank # 114) | MIC (Escherichia coli, KUB No. 5779, AR Bank # 433) | MIC (Klebsiella pneumoniae, KUB No. 5595, AR Bank # 98) | MIC (Klebsiella pneumoniae, KUB No. 5757, AR Bank # 361) | MIC (Klebsiella pneumoniae, KUB No. 5759, AR Bank # 363) | MIC (Kluyvera ascorbata, KUB No. 5641, AR Bank # 144) | MIC (Proteus mirabilis, KUB No. 5773, AR Bank # 377) | MIC (Providencia rettgeri, KUB No. 5579, AR Bank # 82)
32 µg/mL: MIC (Enterobacter cloacae, KUB No. 5590, AR Bank # 93) | MIC (Escherichia coli, KUB No. 5601, AR Bank # 104) | MIC (Escherichia coli, KUB No. 5765, AR Bank # 369) | MIC (Escherichia coli, KUB No. 5767, AR Bank # 371) | MIC (Klebsiella aerogenes, Enterobacter aerogenes, KUB No. 5658, AR Bank # 161) | MIC (Klebsiella oxytoca, KUB No. 5776, AR Bank # 380) | MIC (Klebsiella pnemnonine, KUB No. 5758, AR Bank # 362) | MIC (Klebsiella pneumoniae, KUB No. 5584, AR Bank # 87) | MIC (Klebsiella pneumoniae, KUB No. 5609, AR Bank # 112) | MIC (Klebsiella pneumoniae, KUB No. 5612, AR Bank # 115) | MIC (Klebsiella pneumoniae, KUB No. 5617, AR Bank # 120) | MIC (Klebsiella pneumoniae, KUB No. 5622, AR Bank # 125) | MIC (Klebsiella pneumoniae, KUB No. 5626, AR Bank # 129) | MIC (Klebsiella pneumoniae, Klebsiella pneumoniae KUB No. 5828, AR Bank #523) | MIC (Klebsiella pneumoniae, Klebsiella pneumoniae KUB No. 5829, AR Bank #524) | MIC (Klebsiella pneumoniae, Klebsiella pneumoniae KUB No. 5830, AR Bank #525)
> 64 µg/mL: MIC80 (154 strains of Enterobacterales, read-out: MIC80) | MIC90 [1] | MIC (Citrobacter freundii, KUB No. 5654, AR Bank # 157) | MIC (Enterobacter cloacae, Enterobacter cloacae KUB No. 5792, AR Bank #448) | MIC (Enterobacter cloacae, Enterobacter cloacae KUB No. 5807, AR Bank #501) | MIC (Enterobacter cloacae, Enterobacter cloacae KUB No. 5808, AR Bank #502) | MIC (Enterobacter cloacae, KUB No. 5535, AR Bank# 38) | MIC (Enterobacter cloacae, KUB No. 5550, AR Bank# 53) | MIC (Enterobacter cloacae, KUB No. 5660, AR Bank # 163) | MIC (Enterobacter cloacae, KUB No. 5778, AR Bank # 432) | MIC (Enterobacter cloaccae, KUB No. 5651, AR Bank # 154) | MIC (Enterobacter clooreae, KUB No. 5633, AR Bank # 136) | MIC (Escherichia coli, Escherichia coli KUB No. 5783, AR Bank #437) | MIC (Escherichia coli, Escherichia coli KUB No. 5794, AR Bank #450) | MIC (Escherichia coli, Escherichia coli KUB No. 5796, AR Bank #452) | MIC (Escherichia coli, Escherichia coli KUB No. 5803, AR Bank #861) | MIC (Escherichia coli, KUB No. 5566, AR Bank # 69) | MIC (Escherichia coli, KUB No. 5583, AR Bank # 86) | MIC (Escherichia coli, KUB No. 5615, AR Bank # 118) | MIC (Escherichia coli, KUB No. 5616, AR Bank # 119) | MIC (Escherichia coli, KUB No. 5625, AR Bank # 128) | MIC (Escherichia coli, KUB No. 5634, AR Bank # 137) | MIC (Escherichia coli, KUB No. 5646, AR Bank # 149) | MIC (Escherichia coli, KUB No. 5647, AR Bank # 150) | MIC (Escherichia coli, KUB No. 5648, AR Bank # 151) | MIC (Escherichia coli, KUB No. 5659, AR Bank # 162) | MIC (Escherichia coli, KUB No. 5768, AR Bank # 372) | MIC (Escherichia coli, KUB No. 5781, AR Bank # 435) | MIC (Klebsiella oxytoca, KUB No. 5568, AR Bank # 71) | MIC (Klebsiella ozaenae, KUB No. 5548, AR Bank# 51) | MIC (Klebsiella ozaenae, KUB No. 5593, AR Bank # 96) | MIC (Klebsiella pneumoniae, KUB No. 55, AR Bank# 47) | MIC (Klebsiella pneumoniae, KUB No. 5536, AR Bank# 39) | MIC (Klebsiella pneumoniae, KUB No. 5537, AR Bank# 40) | MIC (Klebsiella pneumoniae, KUB No. 5538, AR Bank# 41) | MIC (Klebsiella pneumoniae, KUB No. 5540, AR Bank# 43) | MIC (Klebsiella pneumoniae, KUB No. 5541, AR Bank# 44) | MIC (Klebsiella pneumoniae, KUB No. 5543, AR Bank# 46) | MIC (Klebsiella pneumoniae, KUB No. 5546, AR Bank# 49) | MIC (Klebsiella pneumoniae, KUB No. 5563, AR Bank # 66) | MIC (Klebsiella pneumoniae, KUB No. 5565, AR Bank # 68) | MIC (Klebsiella pneumoniae, KUB No. 5572, AR Bank # 75) | MIC (Klebsiella pneumoniae, KUB No. 5576, AR Bank # 79) | MIC (Klebsiella pneumoniae, KUB No. 5577, AR Bank # 80) | MIC (Klebsiella pneumoniae, KUB No. 5594, AR Bank # 97) | MIC (Klebsiella pneumoniae, KUB No. 5603, AR Bank # 106) | MIC (Klebsiella pneumoniae, KUB No. 5604, AR Bank # 107) | MIC (Klebsiella pneumoniae, KUB No. 5606, AR Bank # 109) | MIC (Klebsiella pneumoniae, KUB No. 5610, AR Bank # 113) | MIC (Klebsiella pneumoniae, KUB No. 5614, AR Bank # 117) | MIC (Klebsiella pneumoniae, KUB No. 5632, AR Bank # 135) | MIC (Klebsiella pneumoniae, KUB No. 5635, AR Bank # 138) | MIC (Klebsiella pneumoniae, KUB No. 5637, AR Bank # 140) | MIC (Klebsiella pneumoniae, KUB No. 5638, AR Bank # 141) | MIC (Klebsiella pneumoniae, KUB No. 5639, AR Bank # 142) | MIC (Klebsiella pneumoniae, KUB No. 5640, AR Bank # 143) | MIC (Klebsiella pneumoniae, KUB No. 5643, AR Bank # 146) | MIC (Klebsiella pneumoniae, KUB No. 5649, AR Bank # 152) | MIC (Klebsiella pneumoniae, KUB No. 5650, AR Bank # 153) | MIC (Klebsiella pneumoniae, KUB No. 5655, AR Bank # 158) | MIC (Klebsiella pneumoniae, KUB No. 5772, AR Bank # 376) | MIC (Klebsiella pneumoniae, Klebsiella pneumoniae KUB No. 5784, AR Bank #438) | MIC (Klebsiella pneumoniae, Klebsiella pneumoniae KUB No. 5797, AR Bank #453) | MIC (Klebsiella pneumoniae, Klebsiella pneumoniae KUB No. 5809, AR Bank #504) | MIC (Klebsiella pneumoniae, Klebsiella pneumoniae KUB No. 5810, AR Bank #505) | MIC (Klebsiella pneumoniae, Klebsiella pneumoniae KUB No. 5811, AR Bank #506) | MIC (Klebsiella pneumoniae, Klebsiella pneumoniae KUB No. 5812, AR Bank #507) | MIC (Klebsiella pneumoniae, Klebsiella pneumoniae KUB No. 5827, AR Bank #522) | MIC (Morganella morganii, KUB No. 5554, AR Bank# 57) | MIC (Proteus mirabilis, KUB No. 5656, AR Bank # 159) | MIC (Salmonella enterica, Salmonella Senftenberg, KUB No. 5624, AR Bank # 127) | MIC (Serratia marcescens, Serratia marcescens KUB No. 5822, AR Bank #517) | MIC50 [2] | MIC90 [2] | MIC90 (carbapenemase-producing Enterobacterales, Serine carbapenemase (N=61))
8 µg/mL: MIC (Enterobacter cloacae, KUB No. 5547, AR Bank# 50) | MIC (Escherichia coli, KUB No. 5582, AR Bank # 85) | MIC (Raoultella ornithinolvtica, KUB No. 5631, AR Bank # 134) | MIC (Serratia marcescens, Serratia marcescens KUB No. 5826, AR Bank #521)
0.12 µg/mL: MIC (Serratia marcescens, KUB No. 5588, AR Bank # 91) | MIC (Serratia marcescens, KUB No. 5618, AR Bank # 121) | MIC (Serratia marcescens, KUB No. 5619, AR Bank # 122) | MIC (Serratia marcescens, KUB No. 5620, AR Bank # 123) | MIC (Serratia marcescens, KUB No. 5621, AR Bank # 124) | MIC (Serratia marcescens, KUB No. 5627, AR Bank # 130) | MIC (Serratia marcescens, KUB No. 5628, AR Bank # 131)
0.06 µg/mL: MIC (Escherichia coli, KUB No. 5574, AR Bank # 77) | MIC (Escherichia coli, KUB No. 5764, AR Bank # 368)
2 µg/mL: MIC (Enterobacter cloacae, KUB No. 5557, AR Bank# 60) | MIC (Klebsiella pneumoniae, KUB No. 5657, AR Bank # 160) | MIC (Proteus mirabilis, KUB No. 5556, AR Bank# 59)
4 µg/mL: MIC (Enterobacter cloacae, KUB No. 5529, AR Bank# 32) | MIC (Enterobacter cloacae, KUB No. 5763, AR Bank # 367) | MIC (Klebsiella aerogenes, Enterobacter aerogenes, KUB No. 5777, AR Bank # 431) | MIC (Klebsiella pneumoniae, KUB No. 5531, AR Bank# 34) | MIC (Klebsiella pneumoniae, KUB No. 5760, AR Bank # 364) | MIC (Proteus mirabilis, KUB No. 5775, AR Bank # 379)
